Laboratory results from US8791132B2, “Compounds and methods for treatment of hypertension” (Medivation Technologies, Inc., priority 2011, dated 2014).
Several values for one entry are separate records, joined by “and”; a condition that tells them apart may be missing. Identical values can stand only once.

What was measured:
[1] = target: T1, rat adrenergic α1B receptor (Rattus norvegicus, UniProt P15823); assay: Radioligand binding, adrenergic α1B ([3H]Prazosin); conditions: compound at 0.1 μM, [3H]Prazosin, repeat assays, each datapoint shown; for inhibition at 0.1 µM: read-out: Percentage inhibition of ligand binding, Adrenergic α1B
T1 construct: rat adrenergic α1B receptor obtained from Wistar Rat liver; from tissue; host or cells: Wistar rat liver
T1 sequence (P15823 1-515): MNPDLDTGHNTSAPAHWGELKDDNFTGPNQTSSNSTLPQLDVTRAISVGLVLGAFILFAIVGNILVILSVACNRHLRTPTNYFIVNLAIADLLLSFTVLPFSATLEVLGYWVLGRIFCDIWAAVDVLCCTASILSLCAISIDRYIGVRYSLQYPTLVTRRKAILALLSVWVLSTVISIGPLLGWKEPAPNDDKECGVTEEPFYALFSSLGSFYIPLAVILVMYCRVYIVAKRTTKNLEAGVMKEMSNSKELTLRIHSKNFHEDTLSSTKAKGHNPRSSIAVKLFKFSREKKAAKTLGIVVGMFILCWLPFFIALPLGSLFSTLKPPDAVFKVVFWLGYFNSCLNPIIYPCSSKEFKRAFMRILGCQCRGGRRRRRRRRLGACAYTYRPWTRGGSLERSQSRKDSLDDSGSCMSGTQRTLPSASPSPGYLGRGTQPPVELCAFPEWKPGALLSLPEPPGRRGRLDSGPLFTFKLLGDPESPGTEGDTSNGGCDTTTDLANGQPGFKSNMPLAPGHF
In short: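 Filter binding with Wistar rat liver α1B preparation: test compound plus 0.25 nM [3H]prazosin, 1 h at 25° C in modified Tris-HCl buffer pH 7.4.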

[2] = target: T2, human recombinant adrenergic α2A receptor (Homo sapiens, UniProt P08913); assay: Radioligand binding, adrenergic α2A ([3H]MK-912); conditions: compound at 0.1 μM, [3H]MK-912, repeat assays, each datapoint shown; for Percentage inhibition of ligand binding, Adrenergic α2A: 0.1 µM; for inhibition at 0.1 µM: read-out: Percentage inhibition of ligand binding, Adrenergic α2A
T2 construct: expressed in transfected cells; host or cells: insect Sf9 cells
T2 sequence (P08913 1-465): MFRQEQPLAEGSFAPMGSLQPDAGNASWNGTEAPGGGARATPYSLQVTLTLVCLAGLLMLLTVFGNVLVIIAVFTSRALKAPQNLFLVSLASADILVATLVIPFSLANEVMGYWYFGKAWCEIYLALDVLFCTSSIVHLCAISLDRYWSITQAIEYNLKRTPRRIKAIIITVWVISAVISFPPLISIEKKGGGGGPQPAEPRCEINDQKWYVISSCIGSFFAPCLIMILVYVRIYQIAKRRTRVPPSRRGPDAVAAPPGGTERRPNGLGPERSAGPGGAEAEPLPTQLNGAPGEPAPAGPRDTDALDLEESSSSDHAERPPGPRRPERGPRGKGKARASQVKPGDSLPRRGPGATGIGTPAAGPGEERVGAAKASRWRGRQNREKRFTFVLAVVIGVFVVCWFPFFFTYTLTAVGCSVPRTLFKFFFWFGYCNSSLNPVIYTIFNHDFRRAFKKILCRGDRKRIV
In short: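 Receptor expressed in insect Sf9 cells, assayed in 50 mM Tris-HCl pH 7.4 with 12.5 mM MgCl2 and 2 mM EDTA. Compounds incubated with 1 nM [3H]MK-912 for 60 min at 25 °C; nonspecific binding defined with 10 μM WB-4101. Filter-bound radioactivity counted; values are percent inhibition of specific binding.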

[3] = target: T3, human recombinant adrenergic α2B receptor (Homo sapiens, UniProt P18089); assay: Radioligand binding, adrenergic α2B ([3H]Rauwolscine); conditions: for Percentage inhibition of ligand binding, Adrenergic α2B / inhibition at 0.03 µM: compound at 0.03 μM; for Percentage inhibition of ligand binding, Adrenergic α2B: 0.03 µM
T3 construct: expressed in transfected cells; host or cells: CHO-K1
T3 sequence (P18089 1-450): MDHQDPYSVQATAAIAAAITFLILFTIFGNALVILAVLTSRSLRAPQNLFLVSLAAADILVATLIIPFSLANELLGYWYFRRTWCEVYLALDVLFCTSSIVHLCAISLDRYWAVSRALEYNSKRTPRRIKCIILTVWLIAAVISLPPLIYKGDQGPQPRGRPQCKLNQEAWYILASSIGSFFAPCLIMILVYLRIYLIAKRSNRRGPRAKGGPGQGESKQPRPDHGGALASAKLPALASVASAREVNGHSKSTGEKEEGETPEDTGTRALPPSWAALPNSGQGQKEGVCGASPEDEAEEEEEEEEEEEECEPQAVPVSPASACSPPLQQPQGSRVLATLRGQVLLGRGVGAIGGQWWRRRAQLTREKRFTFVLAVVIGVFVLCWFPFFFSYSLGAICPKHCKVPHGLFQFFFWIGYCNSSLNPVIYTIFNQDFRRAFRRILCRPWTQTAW
In short: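 Membranes from CHO-K1 cells expressing human recombinant α2B, in 50 mM Tris-HCl pH 7.4, 12.5 mM MgCl2, 1 mM EDTA, 0.2% BSA, incubated with compound and 2.5 nM [3H]Rauwolscine, 60 min, 25 °C.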

[4] = [3H]Rauwolscine, repeat assays, each datapoint shown
[5] = [3H]Rauwolscine, repeat assays, each datapoint shown, read-out: Percentage inhibition of ligand binding, Adrenergic α2B

Row | Compound | Percentage inhibition of ligand binding, Adrenergic α1B ([1]; 0.1 µM) | Percentage inhibition of ligand binding, Adrenergic α2A [2] | Percentage inhibition of ligand binding, Adrenergic α2B [3, 4] | other results
1 | CN1Cc2c(n(CC(O)c3ccncc3)c3ncccc23)C(C)(C)C1 (single isomer, unassigned) [17a, 1-pyridin-4-yl-2-(6,8,8-trimethyl-5,6,7,8-tetrahydro-1,6,9-triaza-fluoren-9-yl)-ethanol] | 13% | 19% | 32% | 
2 | CN1Cc2c(n(CC(O)c3ccncc3)c3ncccc23)C(C)(C)C1 (single isomer, unassigned) [17b, 1-pyridin-4-yl-2-(6,8,8-trimethyl-5,6,7,8-tetrahydro-1,6,9-triaza-fluoren-9-yl)-ethanol] | 16% | 9% | 20% | 
3 | Cc1ccc2c(c1)c1c(n2CC(O)c2ccc(F)cc2)CN(C)CC1 (single isomer, unassigned) [18a, 2-(2,6-dimethyl-1,2,3,4-tetrahydro-β-carbolin-9-yl)-1-(4-fluoro-phenyl)-ethanol] | 55% |  |  | inhibition at 0.1 µM [2]: 50%; inhibition at 0.03 µM [3, 5]: 54%
4 | Cc1ccc2c(c1)c1c(n2CC(O)c2ccc(F)cc2)CN(C)CC1 (single isomer, unassigned) [18b, 2-(2,6-dimethyl-1,2,3,4-tetrahydro-β-carbolin-9-yl)-1-(4-fluoro-phenyl)-ethanol] | 87% | 32% | 61% | 
5 | Cc1ccc2c(c1)c1c(n2CC(C)(O)c2ccncc2)CN(C)CC1 (single isomer, unassigned) [19a, 1-(2,6-dimethyl-1,2,3,4-tetrahydro-β-carbolin-9-yl)-2-pyridin-4-yl-propan-2-ol] |  | 21% | 75% | inhibition at 0.1 µM [1]: 75%
6 | Cc1ccc2c(c1)c1c(n2CC(C)(O)c2ccncc2)CN(C)CC1 (single isomer, unassigned) [19b, 1-(2,6-dimethyl-1,2,3,4-tetrahydro-β-carbolin-9-yl)-2-pyridin-4-yl-propan-2-ol] | 62% | 9% | 27% | 

Now from value to compound, other results behind:

Row | Percentage inhibition of ligand binding, Adrenergic α1B ([1]; 0.1 µM) | Percentage inhibition of ligand binding, Adrenergic α2A [2] | Percentage inhibition of ligand binding, Adrenergic α2B [3, 4] | Compound | other results
7 | 67% |  |  | COc1ccc(C(O)Cn2c3c(c4cc(C)ccc42)CCN(C)C3)cc1 (single isomer, unassigned) [20a, 2-(2,6-dimethyl-1,2,3,4-tetrahydro-β-carbolin-9-yl)-1-(4-methoxy-phenyl)-ethanol] | inhibition at 0.1 µM [2]: 29%; inhibition at 0.03 µM [3, 5]: 28%
8 | 94% | 28% | 36% | COc1ccc(C(O)Cn2c3c(c4cc(C)ccc42)CCN(C)C3)cc1 (single isomer, unassigned) [20b, 2-(2,6-dimethyl-1,2,3,4-tetrahydro-β-carbolin-9-yl)-1-(4-methoxy-phenyl)-ethanol] | 
9 | 5% | −1% | −2% | Cc1ccc2c(c1)c1c(n2CC(O)c2cccnc2)CCN(CCO)C1 (single isomer, unassigned) [21a] | 
10 | −2% | −3% | 1% | Cc1ccc2c(c1)c1c(n2CC(O)c2cccnc2)CCN(CCO)C1 (single isomer, unassigned) [21b] | 
11 | 19% | 16% |  | Cc1ccc2c(c1)c1c(n2CC(O)c2ccccn2)CN(C)CC1 (single isomer, unassigned) [22a] | inhibition at 0.03 µM [3, 5]: 22%
12 | 9% | 0% | 30% | Cc1ccc2c(c1)c1c(n2CC(O)c2ccccn2)CN(C)CC1 (single isomer, unassigned) [22b] | 
13 | −20% | 4% | 6% | CN1CCc2c(c3cc(C(C)(C)O)ccc3n2CC(O)c2ccncc2)C1 (single isomer, unassigned) [23a, 2-(2,3,4,5-tetrahydro-5-(2-hydroxy-2-(pyridin-4-yl)ethyl)-2-methyl-1H-pyrido[4,3-b]indol-8-yl)propan-2-ol] | 
14 | 4% | 1% | −3% | CN1CCc2c(c3cc(C(C)(C)O)ccc3n2CC(O)c2ccncc2)C1 (single isomer, unassigned) [23b, 2-(2,3,4,5-tetrahydro-5-(2-hydroxy-2-(pyridin-4-yl)ethyl)-2-methyl-1H-pyrido[4,3-b]indol-8-yl)propan-2-ol] | 
15 |  |  | 63% | Cc1ccc2c(c1)c1c(n2CC(C)(O)c2cccnc2)CCNC1 (single isomer, unassigned) [24a] | inhibition at 0.1 µM [1]: 8%; inhibition at 0.1 µM [2]: 8%
16 |  | 15% | 29% | Cc1ccc2c(c1)c1c(n2CC(C)(O)c2cccnc2)CCNC1 (single isomer, unassigned) [24b] | Percentage inhibition of ligand binding, Adrenergic α1B [1]: 8%
17 | 15% | 12% | 75% and 88% | Cc1cnc2c(c1)c1c(n2CC(C)(O)c2cccnc2)CCN2CCCC12 (single isomer, unassigned) [26b] | inhibition at 0.1 µM ([3]; compound at 0.1 μM, [3H]Rauwolscine, repeat assays, each datapoint shown, read-out: Percentage inhibition of ligand binding, Adrenergic α2B): 100%; Ki ([3]; read-out: Ki α2B): 3.06 nM
18 | 1% | 19% | 1% and 7% | Cc1cnc2c(c1)c1c(n2CC(C)(O)c2cccnc2)CCN2CCCC12 (single isomer, unassigned) [26c] | 
